The values that follow come from patent US5521173A, “Tricyclic benzazepine vasopressin antagonists” (American Home Products Corporation, priority 1995, dated 1996).

One experiment concerns the target T1, oxytocin receptors (Rattus norvegicus, UniProt P70536).
T1 construct: The uteri are dissected out, cleaned of fat and connective tissues; from tissue; host or cells: uteri of DES-treated female Sprague-Dawley rats
T1 sequence (P70536 1-388): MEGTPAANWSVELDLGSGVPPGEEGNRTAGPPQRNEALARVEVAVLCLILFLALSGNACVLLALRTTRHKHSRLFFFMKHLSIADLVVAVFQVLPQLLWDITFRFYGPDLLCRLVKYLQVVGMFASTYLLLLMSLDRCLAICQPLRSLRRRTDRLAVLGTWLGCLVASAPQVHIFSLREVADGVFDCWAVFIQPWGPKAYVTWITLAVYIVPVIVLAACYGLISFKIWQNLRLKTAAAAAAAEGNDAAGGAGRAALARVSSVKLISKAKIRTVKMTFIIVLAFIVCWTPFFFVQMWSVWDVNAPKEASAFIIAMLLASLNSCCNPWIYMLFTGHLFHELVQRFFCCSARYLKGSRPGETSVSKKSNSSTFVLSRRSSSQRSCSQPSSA
Kind of experiment: Oxytocin Receptor Binding. Set-up: species or system rat (female Sprague-Dawley). Conditions: for IC50: 1.0 nM [3H]OT. As for the experimental part: Oxytocin Receptor Binding
Female Sprague-Dawley rats weighing approximately 200-250 g are injected intramuscularly (i.m.) with 0.3 mg/kg of body weight of diethylstilbestrol (DES). The rats are sacrificed 18 hours later under pentobarbital anesthesia. The uteri are dissected out, cleaned of fat and connective tissues and rinsed in 50 ml of normal saline. The tissue pooled from six rats is homogenized in 50 ml of […] Tris.HCl, containing 0.5 mM dithiothreitol and 1.0 mM EDTA, adjusted to pH 7.4, using a polytron at setting 6 with three passes of 10 sec each. The homogenate is passed through two (2) layers of cheesecloth and the filtrate centrifuged at 1000× g for 10 min. The clear supernatant is removed and recentrifuged at 165,000× g for 30 min. The resulting pellet containing the oxytocin receptors is resuspended in 50.0 mM Tris.HCl containing 5.0 mM MgCl2 at pH 7.4, to give a protein concentration of 2.5 mg/ml of tissue suspension. This preparation is used in subsequent binding assays with [^3 H]Oxytocin.
Binding of 3,5-[^3 H]Oxytocin ([^3 H]OT) to its receptors is done in microtiter plates using [^3 H]OT, at various concentrations, in an assay buffer of 50.0 mM Tris.HCl, pH 7.4 and containing 5.0 mM MgCl2, and a mixture of protease inhibitors: BSA, 0.1 mg; aprotinin, 1.0 mg; 1,10-phenanthroline, 2.0 mg; […], 10.0 mg; and PMSF, 0.3 mg per 100 ml of buffer solution. Non-specific binding is determined in the presence of 1.0 uM unlabeled OT. The binding reaction is terminated after 60 min., at 22° C., by rapid filtration through glass fiber filters using a Brandel, cell harvester (Biomedical Research and Development Laboratories,Inc., Gaithersburg, Md.). Competition experiments are conducted at equilibrium using 1.0 nM [^3 H]OT and varying the concentration of the displacing agents. The concentrations of agent displacing 50% of [^3 H]OT at its sites (IC50) are calculated by a computer assisted LUNDON-2 program (LUNDON SOFTWARE INC., Ohio, USA).

For experiment [1], the target named is T2, Human V2 Vasopressin Receptor (Homo sapiens, UniProt P30518).
T2 construct: expressed in transfected cells; host or cells: mouse fibroblast cell line LV-2
T2 sequence (P30518 whole entry): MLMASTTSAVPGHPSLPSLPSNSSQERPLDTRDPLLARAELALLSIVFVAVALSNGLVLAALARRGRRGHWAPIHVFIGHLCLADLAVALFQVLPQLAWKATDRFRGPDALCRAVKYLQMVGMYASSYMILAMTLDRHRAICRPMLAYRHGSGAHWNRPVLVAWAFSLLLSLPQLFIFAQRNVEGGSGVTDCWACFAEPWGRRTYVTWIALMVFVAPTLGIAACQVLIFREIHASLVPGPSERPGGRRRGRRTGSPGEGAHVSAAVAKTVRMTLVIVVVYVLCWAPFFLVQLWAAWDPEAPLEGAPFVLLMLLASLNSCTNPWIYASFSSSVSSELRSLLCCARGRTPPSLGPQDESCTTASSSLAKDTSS
Description: Binding to Membranes of Mouse Fibroblast Cell Line (LV-2) Transfected with the cDNA Expressing the Human V2 Vasopressin Receptor. The conditions noted are these: ** LV-2 cell membranes. As for the experimental part:
(a) Membrane Preparation Flasks of 175 ml capacity, containing attached cells grown to confluence, are cleared of culture medium by aspiration. […] The content of all flasks is poured into a centrifuge tube and the cells pelleted at 300× g for 15 min. The Hank's based solution is aspirated off and the cells homogenized with a polytron at setting #6 for 10 sec in 10.0 mM Tris.HCl buffer, pH 7.4 containing 0.25M sucrose and 1.0 mM EDTA. The homogenate is centrifuged at 1500× g for 10 min to remove ghost membranes. The supernatant fluid is centrifuged at 100,000× g for 60 min to pellet the receptor protein. […] (b) Receptor Binding […] Non specific binding is assessed in the presence of 1.0 μM of unlabeled ligand, added in 20 μl volume. […] The radioactivity trapped on the filter disk by the ligand-receptor complex is assessed by liquid scintillation counting in a Packard LS Counter, with an efficiency of 65% for tritium. The data are analyzed for IC50 values by the LUNDON-2 program for competition (LUNDON SOFTWARE, Ohio).

Experiment [2] concerns the target T3, Vasopressin V1 receptor subtype in Human Platelet Membranes (Homo sapiens, UniProt P37288).
T3 construct: tissue Hudson Valley Blood Services, Westchester Medical Center, Valhalla, N.Y; host or cells: human platelets (frozen platelet rich plasma)
Description: Binding to Vasopressin V1 receptor subtype in Human Platelet Membranes. Here is the method: Radioligand Binding Experiments with Human Platelet Membranes
(a) Platelet Membrane Preparation
Frozen platelet rich plasma (PRP), (Platelet Source: Hudson Valley Blood Services, Westchester Medical Center, Valhalla, N.Y.) are thawed to room temperature. The tubes containing the PRP are centrifuged at 16,000×g for 10 min. at 4° C. and the supernatant fluid discarded. The platelets resuspended in an equal volume of 50.0 mM Tris.HCl, pH 7.5 containing 120 mM NaCl and 20.0 mM EDTA. The suspension is recentrifuged at 16,000× g for 10 min. This washing step is repeated one more time. The wash discarded and the lysed pellets homogenized in low ionic strength buffer of Tris.HCl, 5.0 mM, pH 7.5 containing 5.0 mM EDTA. The homogenate is centrifuged at 39,000× g for 10 min. The resulting pellet is resuspended in Tris.HCl buffer, 70.0 mM, pH 7.5 and recentrifuged at 39,000× g for 10 min. The final pellet is resuspended in 50.0 mM Tris.HCl buffer pH 7.4 containing 120 mM NaCl and 5.0 mM KCl to give 1.0-2.0 mg protein per ml of suspension.
(b) Binding to Vasopressin V1 receptor subtype in Human Platelet Membranes
In wells of a 96 well format microtiter plate, add 100 μl of 50.0 mM Tris.HCl buffer containing 0.2% BSA and a mixture of protease inhibitors (aprotinin, leupeptin etc.). Then add 20 μl of [^3 H]Ligand (Manning or Arg^8 Vasopressin), to give final concentrations ranging from 0.01 to 10.0 nM. Initiate the binding by adding 80.0 μl of platelet suspension (approx. 100 μg protein). Mix all reagents by pipetting the mixture up and down a few times. Non specific binding is measured in the presence of 1.0 µM of unlabeled ligand (Manning or Arg^8 Vasopressin). Let the mixture stand undisturbed at room temperature for ninety (90) min. Upon this time, rapidly filter off the incubate under vacuum suction over GF/B filters, using a Brandel Harvester. Determine the radioactivity caught on the filter disks by the addition of liquid scintillant and counting in a liquid scintillator.

In a further experiment the test system is Vasopressin V2. Kind of experiment: Vasopressin V2 Antagonist Activity in Conscious Hydrated Rats. The conditions noted are these: 10 mg/kg orally, AVP 0.4 μg/kg i.p.; for Osmolality: urine. It is filed as in vivo, rat. As for the experimental part: Two to four rats are used for each compound. One hour later, arginine vasopressin (AVP, antidiuretic hormore, ADH) dissolved in peanut oil is administered at 0.4 μg/kg intraperitoneally. Two rats in each test would not receive arginine vasopressin but only the vehicle (peanut oil) to serve as water-loading control. Twenty minutes later each rat is given 30 mL/kg of deionized water orally by gavage and is placed individually in a metabolic cage equipped with a funnel and a graduated glass cylinder to collect urine for four hours. Urine volume is measured and osmolality analyzed by use of a Fiske One-Ten osmometer (Fiske Assoc., Norwood, Mass., USA). Urinary sodium, potassium, and chloride are analyzed by use of ion-specific electrodes in a Beckman E3 (Electrolyte 3) Analyzer. In the following results, […] and decreased osmolality relative to AVP-control indicates activity.

For another experiment, the system named is Vasopressin V1. Kind of experiment: Vasopressin V1 Antagonist Activity in Conscious Rats (vasopressin vasopressor response). It is filed as in vivo, rat. The conditions noted are these: for Max % Inhibition: vasopressin vasopressor response. Here is the method:
Vasopressin V1 Antagonist Activity in Conscious Rats Conscious rats are restrained in a supine position with elastic tape. The area at the base of the tail is locally anesthetized by subcutaneous in filtration with 2% procaine (0.2 ml). Using aseptic technique the ventral caudal tail artery is isolated and a cannula made of PE 10 and 20 (heat-fused) tubing is passed into the lower abdominal aorta. The cannula is secured, heparinized (1000 i.u./cc), sealed and the wound closed with one or two stitches of Dexon 4-0. The caudal vein is also cannulated in the same manner for intravenous drug administration. The duration of the surgery is approximately 5 minutes. Additional local anesthesia (2% procaine or lidocaine) is provided as needed. The animals are placed in plastic restraining cages in an upright position. The cannula is attached to a Statham P23Db pressure transducer and pulsatile blood pressure is recorded. […] Percentage of antagonism by the compound is calculated using the pre-drug vasopressin vasopressor response as 100%. The results of this test on representative compounds of this invention in which the dose, the maximum % inhibition and the time in minutes, are shown in Table III.

T3 sequence (P37288 whole entry): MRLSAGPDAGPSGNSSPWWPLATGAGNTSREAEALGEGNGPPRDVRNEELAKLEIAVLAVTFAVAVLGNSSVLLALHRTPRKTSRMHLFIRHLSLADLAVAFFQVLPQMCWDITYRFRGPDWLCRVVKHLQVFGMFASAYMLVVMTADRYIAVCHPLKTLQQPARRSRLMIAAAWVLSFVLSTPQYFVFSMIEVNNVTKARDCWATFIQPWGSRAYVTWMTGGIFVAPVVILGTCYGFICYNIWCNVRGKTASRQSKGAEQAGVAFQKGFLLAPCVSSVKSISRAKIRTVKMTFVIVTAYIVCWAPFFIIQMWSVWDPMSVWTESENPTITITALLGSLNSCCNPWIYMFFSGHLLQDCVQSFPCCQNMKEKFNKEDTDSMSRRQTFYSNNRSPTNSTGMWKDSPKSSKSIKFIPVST

Consider `CCCc1ccc(-c2ccc(C(=O)N3Cc4cccn4Cc4ccccc43)cc2)cc1` [Example 21, 10,11-Dihydro-10-[(4'-propyl[1,1'-biphenyl]-4-yl)carbonyl]-5H-pyrrolo[2,1-c][1,4]benzodiazepine], for which 10 µM produced 68% inhibition at oxytocin receptors. Further, the IC50 – broadly, the concentration that gives 50% inhibition – in experiment [1] was determined as 58 nM; in experiment [2] it was 12 nM. Further, in the experiment with Vasopressin V2, the “Urine Volume” value is reported as 4.5 ml/4 hrs. In the experiment on Vasopressin V2, this molecule registered an Osmolality of 1347 mOsm/kg.
Turning to `Cc1ccc(S(=O)(=O)c2ccc(C(=O)N3Cc4cccn4Cc4ccccc43)cc2)cc1` [Example 13, 10,11-Dihydro-10-[4-[(4-methylphenyl)sulfonyl]benzoyl]-5H-pyrrolo[2,1-c][1,4]benzodiazepine], the inhibition (in general, the relative decrease from the control value, in per cent) at 10 µM on oxytocin receptors stood at 67%. In experiment [2], this molecule registered a half-inhibitory concentration (IC50) of 21 nM. Further, in the experiment on Vasopressin V2, the “Urine Volume” value amounted to 5.5 ml/4 hrs and the Osmolality turned out to be 1380 mOsm/kg.
For the molecule `O=C(c1ccc(-c2cccs2)nc1)N1Cc2cccn2Cc2ccccc21` [Example 22], the inhibition at 10 µM at oxytocin receptors amounted to 98%. For the same molecule, the values for the IC50 (on oxytocin receptors; in experiment [1]; in experiment [2]) were 480 nM, 3600 nM and 960 nM, respectively.
Turning to `Cc1ccc(Oc2ccc(C(=O)N3Cc4cccn4Cc4ccccc43)cc2)cc1` [Example 18, 10,11-Dihydro-10-[4-(4-methylphenoxy)benzoyl]-5H-pyrrolo[2,1-c][1,4]benzodiazepine], at oxytocin receptors, the inhibition at 10 µM is 99% and the IC50 was determined as 120 nM. In the experiment with Vasopressin V1 (30 mg/kg iv), the “Time (of maximum % inhibition)” value is on record as 300 min and the “Max % Inhibition” value was determined as 36%. For the same molecule, the IC50 in experiment [2] amounted to 280 nM. Moreover, in the experiment on Vasopressin V2, the “Urine Volume” value is 5.3 ml/4 hrs and the Osmolality came out at 919 mOsm/kg.
Take `Cc1ccccc1-c1ccc(C(=O)N2Cc3cccn3Cc3ccccc32)cc1` [Example 5, 10,11-Dihydro-10-[4-(2-methylphenyl)benzoyl]-5H-pyrrolo[2,1-c][1,4]benzodiazepine]: the half-inhibitory concentration (IC50) in experiment [1] was found to be 2000 nM. In experiment [2], the IC50 came to 88 nM. Besides, in the experiment with Vasopressin V2, the “Urine Volume” value was 7.8 ml/4 hrs and the Osmolality came to 992 mOsm/kg.
At oxytocin receptors, `CN(C)Cc1ccc2n1Cc1ccccc1N(C(=O)c1ccc(-c3cccs3)cc1)C2` [Example 6, 10,11-Dihydro-3-[(dimethylamino)methyl]-10-[4-(2-thienyl)benzoyl]-5H-pyrrolo[2,1-c][1,4]benzodiazepine] returned an inhibition at 10 µM of 100%. The IC50 on oxytocin receptors was 330 nM; in experiment [1], 15000 nM; in experiment [2], 63 nM.
At oxytocin receptors, `O=C(c1ccc(-c2ccccc2[N+](=O)[O-])cc1)N1Cc2cccn2Cc2ccccc21` [Example 2, 10,11-Dihydro-10-[4-(2-nitrophenyl)benzoyl]-5H-pyrrolo[2,1-c][1,4]benzodiazepine] registered an inhibition at 10 µM of 100% and an IC50 of 49 ± 3 nM. This molecule came in with a half-inhibitory concentration (IC50) in experiment [1] of 96 nM. In experiment [2], this molecule yielded a half-maximal inhibitory concentration (IC50) of 64 nM. Further, in the experiment on Vasopressin V2, the “Urine Volume” value is given as 5.5 ml/4 hrs and the Osmolality amounted to 1257 mOsm/kg.
As for `O=C(c1ccc(-c2cccs2)cc1)N1Cc2cccn2Cc2ccccc21` [drawing 73], the 50% inhibitory concentration (IC50) is 510 nM in experiment [1] and 13 nM in experiment [2].
Turning to `CN(C)Cc1ccc2n1Cc1ccccc1N(C(=O)c1ccc(-c3ccccc3)cc1)C2` [Example 20, 10-([1,1'-Biphenyl]-4-ylcarbonyl)-10,11-dihydro-N,N-dimethyl-5H-pyrrolo[2,1-c][1,4]benzodiazepine-3-methanamine], on oxytocin receptors, the inhibition at 10 µM was 100% and the IC50 came to 110 nM. In addition, in the experiment on Vasopressin V1 (10 mg/kg iv), the “Time (of maximum % inhibition)” value is recorded as 240 min and the “Max % Inhibition” value worked out at 61%. The same molecule displayed a half-maximal inhibitory concentration (IC50) in experiment [2] of 13 nM. Moreover, in the experiment with Vasopressin V2, the “Urine Volume” value turned out to be 3.5 ml/4 hrs and the Osmolality was determined as 1650 mOsm/kg.
